This test concerns the target human GLP-1R (Homo sapiens, UniProt P43220). As to the kind of experiment: In vitro receptor activation reporter assay (CRE-Luc, HEK293-GLP-1R-CRE cells; receptor-mediated cAMP synthesis). The class given is cell-based. More on the design: expressed in transfected cells; host or cells: HEK293 (CRE-HEK293, HEK293-GLP-1R-CRE). The following applies: Table 7; read-out: EC50 GLP1R. For orientation: In a reporter assay the amount or activity of a reporter protein is the signal.

Sequence of human GLP-1R (P43220 24-463): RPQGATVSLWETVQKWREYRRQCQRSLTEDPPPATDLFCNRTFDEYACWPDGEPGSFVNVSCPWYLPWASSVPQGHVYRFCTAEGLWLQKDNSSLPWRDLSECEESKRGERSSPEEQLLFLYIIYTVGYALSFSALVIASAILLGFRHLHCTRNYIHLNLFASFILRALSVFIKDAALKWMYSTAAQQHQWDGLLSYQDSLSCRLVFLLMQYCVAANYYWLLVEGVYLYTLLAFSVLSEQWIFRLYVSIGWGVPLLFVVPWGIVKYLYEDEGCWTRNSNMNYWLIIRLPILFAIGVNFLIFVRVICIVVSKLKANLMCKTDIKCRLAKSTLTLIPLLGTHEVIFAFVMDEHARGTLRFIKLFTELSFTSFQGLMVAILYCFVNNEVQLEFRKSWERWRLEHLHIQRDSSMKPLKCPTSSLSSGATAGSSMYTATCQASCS
Protocol: HEK293 cells were infected with lentivirus encoding firefly luciferase gene under the control of cAMP responsive element (CRE) promoter (Qiagen, The Netherlands) and then were selected using 1 μg mL^−1 puromycin (Life Technologies, Carlsbad) for 1 week. The surviving cells (referred to as CRE-HEK293) were expanded and then transfected with a G418 selective mammalian expression plasmid encoding human GLP-1R or GIPR. In brief, GLP-1R or GIPR plasmid was transfected into CRE-HEK293 cells using Lipofectamine 2000 and selected with 400 μg mL^−1 Geneticin (Life Technologies, Carlsbad, CA). Single colony stable cell line overexpressing CRE-luciferase and GLP-1R or GIPR (HEK293-GLP-1R-CRE or HEK293-GIPR-CRE) was then established for in vitro activity assay.
The EC50 of each peptide was determined using GraphPad Prism 6 software (GraphPad, San Diego, CA).
HEK293 cells were infected with lentivirus encoding firefly luciferase gene under the control of cAMP responsive element (CRE) promoter (Qiagen, The Netherlands) and then were selected using 1 μg/mL puromycin (Life Technologies, Carlsbad) for 1 week. The surviving cells (referred to as CRE-HEK293) were expanded and then transfected with a G418 selective mammalian expression plasmid encoding human GLP-1R. In brief, GLP-1R plasmid was transfected into CRE-HEK293 cells using Lipofectamine 2000 and selected with 400 μg/mL Geneticin (Life Technologies, Carlsbad, CA). Single colony stable cell line overexpressing CRE-luciferase and GLP1R was then established for in vitro activity assay.

A word on the EC50: it is the concentration at which the effect is half-maximal. Regarding `CCCC[C@@H]1NC(=O)[C@H](C)NC(=O)[C@H](C)NC(=O)[C@H](CCC(N)=O)NC(=O)[C@H](CCCCN)NC(=O)[C@H](CC(=O)O)NC(=O)[C@@H](NC(=O)[C@H](Cc2ccc(O)cc2)NC(=O)[C@@H](NC(=O)[C@H](CC(=O)O)NC(=O)[C@H](Cc2ccc(O)cc2)NC(=O)[C@H](CC(=O)O)NC(=O)[C@H](CO)NC(=O)[C@H](Cc2c[nH]cn2)NC(=O)[C@H](Cc2ccccc2)NC(=O)[C@@H](NC(=O)CNC(=O)[C@H](CCC(=O)O)NC(=O)C(C)(C)NC(=O)[C@@H](N)Cc2ccc(O)cc2)[C@@H](C)O)[C@@H](C)CC)CCCCNC(=O)CN(C(=O)CCNC(=O)CCOCCOCCNC(=O)CCOCCOCCNC(=O)CC[C@H](NC(=O)CCCCCCCCCCCCCCCCC(=O)O)C(=O)O)CC(=O)NCCCC[C@@H](C(=O)N[C@@H](Cc2ccccc2)C(=O)N[C@H](C(=O)N[C@@H](C)C(=O)N[C@@H](Cc2c[nH]c3ccccc23)C(=O)N[C@@H](CC(C)C)C(=O)N[C@@H](CC(C)C)C(=O)N[C@@H](C)C(=O)NCC(=O)NCC(=O)N2CCC[C@H]2C(=O)N[C@@H](CO)C(=O)N[C@@H](CO)C(=O)NCC(=O)N[C@@H](C)C(=O)N2CCC[C@H]2C(=O)N2CCC[C@H]2C(=O)N2CCC[C@H]2C(=O)N[C@@H](CO)C(N)=O)C(C)C)NC1=O` [ZA-42 - K5, YAibEGT-FHSDY-DIYXD-KQAANle-XFVAW-LLAGG-PSSGA-PPPS-NH2 (where each X is K) (SEQ ID NO: 47)], the EC50 was approximately 13.7 µM.

(Values after patent US12329823B2 (The Scripps Research Institute, priority 2021, dated 2025).)
